Data reported in patent publication US8962627B2, “Oxime derivatives and their use as allosteric modulators of metabotropic glutamate receptors” (Prestwick Chemical, Inc., priority 2009, dated 2015).

How the values were obtained:
[1] = target: T1, human mGluR4 transiently over-expressed in HEK-293 cells (Homo sapiens, UniProt Q14833); assay: Human mGluR4 positive allosteric modulator evaluation using Ca++ functional assay; type: cell-based; details: for EC50: HEK-293 cells co-transfected with hmGluR4 and chimeric G protein, EC10 glutamate, intracellular calcium (Fluo4AM), read-out: mean EC50 of agonist/positive allosteric modulator activity on mGluR4; for PAM activity on mGluR4: up to 100 μM
T1 construct: expressed in transfected cells; host or cells: HEK-293 cells, transient co-transfection by electroporation
Experimental: Human mGluR4 Positive Allosteric Modulator Evaluation Using Ca^++ Functional Assay
Compounds of the present invention were tested successively for their agonist and positive allosteric modulator activities on human mGluR4 transiently over-expressed in HEK-293 cells. They exert agonist activity if, by themselves in absence of the endogenous glutamate, they are able to activate mGluR4; and they exert positive allosteric modulator activity if they increase the action of the endogenous glutamate.
Cell Culture and Transfection
HEK-293 cells were maintained in Modified Eagle's Medium supplemented with 10% Foetal Calf Serum, 1% Penicillin/Streptomycin and 1% non essential amino acids at 37° C./5% CO2.
Cells were co-transfected by electroporation with two DNA plasmids encoding hmGluR4 and a chimeric G protein allowing redirection of the activation signal to intracellular calcium pathway. Cells were plated after transfection onto polyornithine coated, clear bottom, black-walled, 96-well plates and cultured for 24 h.
Calcium Assay EC50 Determination
Receptor activity was detected by changes in intracellular calcium measured using the fluorescent Ca^2+ sensitive dye, Fluo4AM (Molecular Probes).
The day of the assay, medium was aspirated and replaced during 3 hours by medium without serum supplemented with 1% Glutamax, 1% Penicillin/Streptomycin and 1% non essential amino acids. Then, cells were washed with freshly prepared buffer B (HBSS 1×(PAA), Hepes 20 mM, MgSO4-7H2O 1 mM, Na2CO3 3.3 mM, CaCl2-2H2O 1.3 mM, 0.5% BSA, Probenecid 2.5 mM) and loaded at 37° C. in 5% CO2 for 1.5 hours with buffer B containing 1 μM Fluo4AM 0.1 mg/mL Pluronic Acid, 7 μg/mL Glutamate Pyruvate Transaminase and 2 mM sodium pyruvate. Afterwards cells were washed twice with buffer B and 50 μL of this buffer were added to each well. Addition of compounds and intracellular Ca^2+ measurements (excitation 485 nm, emission 525 nm) were performed by the fluorescence microplate reader FlexStation (Molecular Devices).
Agonist and positive allosteric modulator activities of compounds were consecutively evaluated on the same cells plate. Agonist activity was first tested during 60 s with the addition of compound alone on the cells. Then, the cells were stimulated by an EC10 glutamate concentration and fluorescence recorded for additional 60 s. EC10 glutamate concentration is the concentration giving 10% of the maximal glutamate response. Agonist and/or positive allosteric modulator activity(ies) were evaluated in comparison to basal signal evoked by EC10 glutamate alone.
For EC50 determination, a dose-response test was performed using 6 to 9 concentrations of each compound of the invention. Dose-response curves were fitted using the sigmoidal dose-response (variable slope) analysis in GraphPad Prism program (Graph Pad Inc) and EC50 of agonist/positive allosteric modulator activity was calculated. Dose-response experiments were all performed in duplicate, two times independently.

T1 sequence (Q14833 33-912): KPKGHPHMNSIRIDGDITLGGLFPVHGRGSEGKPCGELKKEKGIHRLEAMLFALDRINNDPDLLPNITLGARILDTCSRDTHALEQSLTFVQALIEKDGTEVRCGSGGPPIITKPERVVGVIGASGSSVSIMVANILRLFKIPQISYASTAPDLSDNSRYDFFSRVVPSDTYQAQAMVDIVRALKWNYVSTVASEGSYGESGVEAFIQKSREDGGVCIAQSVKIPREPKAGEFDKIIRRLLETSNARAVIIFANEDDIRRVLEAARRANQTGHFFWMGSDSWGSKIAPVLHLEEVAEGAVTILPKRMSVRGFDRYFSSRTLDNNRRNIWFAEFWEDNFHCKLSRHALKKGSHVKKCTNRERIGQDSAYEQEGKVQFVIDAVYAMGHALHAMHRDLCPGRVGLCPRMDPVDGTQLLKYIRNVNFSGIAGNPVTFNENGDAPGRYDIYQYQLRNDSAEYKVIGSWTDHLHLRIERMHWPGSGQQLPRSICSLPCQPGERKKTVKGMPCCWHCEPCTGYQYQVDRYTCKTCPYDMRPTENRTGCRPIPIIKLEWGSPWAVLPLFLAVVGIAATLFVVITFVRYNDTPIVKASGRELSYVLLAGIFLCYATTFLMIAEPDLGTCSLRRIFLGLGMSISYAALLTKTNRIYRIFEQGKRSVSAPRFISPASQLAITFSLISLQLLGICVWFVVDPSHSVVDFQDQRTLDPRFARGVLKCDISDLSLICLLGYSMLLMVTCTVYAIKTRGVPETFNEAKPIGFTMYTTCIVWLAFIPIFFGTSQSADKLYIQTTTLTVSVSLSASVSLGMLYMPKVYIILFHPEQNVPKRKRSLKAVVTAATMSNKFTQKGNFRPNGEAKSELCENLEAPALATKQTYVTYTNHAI

EC50 [1] [µM] | melting point | PAM activity on mGluR4 [1] | Compound
< 5 | 278 to 280 °C |  | ON=c1cc(-c2cc3ccccc3cn2)oc2ccc(F)cc12 (mixture of isomers) [Example 6, 6-fluoro-2-isoquinolin-3-yl-chromen-4-one oxime]
< 5 | 250 to 254 °C |  | ON=c1cc(-c2cc3ccccc3cn2)oc2ccc(OC(F)(F)F)cc12 (mixture of isomers) [Example 10, 2-isoquinolin-3-yl-6-trifluoromethoxy-chromen-4-one oxime]
< 5 | 245 to 247 °C |  | ON=c1cc(-c2cc3ccccc3cn2)oc2ccc(C(F)(F)F)cc12 (mixture of isomers) [Example 11, 2-isoquinolin-3-yl-6-trifluoromethyl-chromen-4-one oxime]
< 5 | 245 to 247 °C |  | Cc1ccc2cnc(-c3cc(=NO)c4ccccc4o3)cc2c1 (mixture of isomers) [Example 15, 2-(6-methyl-isoquinolin-3-yl)-chromen-4-one oxime]
< 5 | 273 to 276 °C |  | ON=c1cc(-c2cc3ccccc3cn2)oc2cc(/C=C/c3ccccc3)ccc12 (mixture of isomers) [Example 21, 2-isoquinolin-3-yl-7-((E)-styryl)-chromen-4-one oxime]
< 5 | 265 to 270 °C |  | ON=c1cc(-c2cc3ccccc3cn2)oc2cc(C#Cc3ccncc3)ccc12 (mixture of isomers) [Example 26, 2-isoquinolin-3-yl-7-(pyridin-4-yl)ethynyl-chromen-4-one oxime]
< 1 | 248 to 251 °C |  | COc1cccc(C#Cc2ccc3c(=NO)cc(-c4cc5ccccc5cn4)oc3c2)c1 (mixture of isomers) [Example 28, 2-isoquinolin-3-yl-7-(3-methoxyphenyl)ethynyl-chromen-4-one oxime]
< 5 | 255 to 259 °C |  | ON=c1cc(-c2cc3ccccc3cn2)oc2cc(C#Cc3cccc(O)c3)ccc12 (mixture of isomers) [Example 30, 7-(3-hydroxyphenyl)ethynyl-2-isoquinolin-3-yl-chromen-4-one oxime]
< 5 | 255 to 260 °C |  | ON=c1cc(-c2cc3ccccc3cn2)oc2ccc(O)cc12 (mixture of isomers) [Example 41, 6-hydroxy-2-isoquinolin-3-yl-chromen-4-one oxime]
< 5 | 250 to 255 °C |  | COc1ccc2oc(-c3cc4ccccc4cn3)cc(=NO)c2c1 (mixture of isomers) [Example 42, 2-isoquinolin-3-yl-6-methoxy-chromen-4-one oxime]
< 1 | 198 to 204 °C |  | COCCOc1ccc2oc(-c3cc4ccccc4cn3)cc(=NO)c2c1 (mixture of isomers) [Example 43, 2-isoquinolin-3-yl-6-(2-methoxy-ethoxy)-chromen-4-one oxime]
< 5 | 203 to 205 °C |  | CN(C)CCOc1ccc2oc(-c3cc4ccccc4cn3)cc(=NO)c2c1 (mixture of isomers) [Example 44, 6-(2-dimethylamino-ethoxy)-2-isoquinolin-3-yl-chromen-4-one oxime]
< 5 | 238 to 240 °C |  | OCCC#Cc1ccc2c(=NO)cc(-c3cc4ccccc4cn3)oc2c1 (mixture of isomers) [Example 52, 7-(4-Hydroxy-but-1-ynyl)-2-isoquinolin-3-yl-chromen-4-one oxime]
< 1 | 155 to 160 °C |  | COCCOc1cccc(C#Cc2ccc3c(=NO)cc(-c4cc5ccccc5cn4)oc3c2)c1 (mixture of isomers) [Example 53, 2-Isoquinolin-3-yl-7-[3-(2-methoxy-ethoxy)-phenylethynyl]-chromen-4-one oxime]
< 5 | 158 to 160 °C |  | COCCOCC#Cc1ccc2c(=NO)cc(-c3cc4ccccc4cn3)oc2c1 (mixture of isomers) [Example 54, 2-Isoquinolin-3-yl-7-[3-(2-methoxy-ethoxy)-prop-1-ynyl]-chromen-4-one oxime]
< 5 | > 210 °C (dec.) |  | C=CC#Cc1ccc2c(=NO)cc(-c3cc4ccccc4cn3)oc2c1 (mixture of isomers) [Example 55, 7-but-3-en-1-ynyl-2-Isoquinolin-3-yl-chromen-4-one oxime]

EC50 [1] [µM] | melting point | PAM activity on mGluR4 [1] | Compound
< 5 | 246 to 248 °C |  | COc1ccc2c(=NO)cc(-c3cc4ccccc4cn3)oc2c1 (mixture of isomers) [Example 56, 2-isoquinolin-3-yl-7-methoxy-chromen-4-one oxime]
< 5 | 223 to 225 °C |  | COCCOc1ccc2c(=NO)cc(-c3cc4ccccc4cn3)oc2c1 (mixture of isomers) [Example 57, 2-isoquinolin-3-yl-7-(2-methoxy-ethoxy)-chromes-4-one oxime]
< 1 | 243 to 245 °C |  | ON=c1cc(-c2cc3ccsc3cn2)oc2ccccc12 (mixture of isomers) [Example 69, 2-Thieno[2,3-c]pyridin-5-yl-chromen-4-one oxime]
< 1 | 172 to 173 °C |  | COCCCc1ccc2oc(-c3cc4cccn4cn3)cc(=NO)c2c1 (mixture of isomers) [Example 83, 6-(3-Methoxy-propyl)-2-pyrrolo[1,2-c]pyrimidin-3-yl-chromen-4-one oxime]
< 5 | 248 to 251 °C |  | ON=c1cc(-c2cc3ccccc3cn2)oc2cc(C#Cc3ccccn3)ccc12 [Example 24, 2-isoquinolin-3-yl-7-(pyridin-2-yl-ethynyl)-chromen-4-one oxime]
< 5 | 198 to 200 °C |  | C=Cc1ccc2oc(-c3cc4ccccc4cn3)cc(=NO)c2c1 [Example 36, 2-isoquinolin-3-yl-6-(vinyl)-chromen-4-one oxime]
< 1 | 210 to 212 °C |  | CCc1ccc2oc(-c3cc4ccccc4cn3)cc(=NO)c2c1 [Example 37, 6-ethyl-2-isoquinolin-3-yl-chromen-4-one oxime]
< 5 | 223 to 225 °C |  | CN(C)c1ccc2oc(-c3cc4ccccc4cn3)cc(=NO)c2c1 [Example 39, 6-dimethylamino-2-isoquinolin-3-yl-chromen-4-one oxime]
< 5 | 279 to 281 °C |  | N#Cc1ccc2c(=NO)cc(-c3cc4ccccc4cn3)oc2c1 [Example 58, 7-cyano-2-isoquinolin-3-yl-chromen-4-one oxime]
< 5 | 244 to 245 °C |  | ON=c1cc(-c2cc3cc(Br)cn3cn2)oc2ccccc12 [Example 65, 2-(6-bromo-Pyrrolo[1,2-c]pyrimidin-3-yl)-chromen-4-one oxime]
< 1 | 272 to 275 °C |  | ON=c1cc(-c2cc3sccc3cn2)oc2ccccc12 [Example 70, 2-Thieno[3,2-c]pyridin-6-yl-chromen-4-one oxime]
 | 224 to 226 °C | no PAM activity | ON=c1cc(-c2ccc3ccccc3c2)oc2ccccc12 [Example 74, 2-Naphthalen-2-yl-chromen-4-one oxime]
< 5 | 270 to 275 °C (dec.) |  | Cn1ccc2cc(-c3cc(=NO)c4ccccc4o3)ncc21 [Example 77, 2-(1-Methyl-1H-pyrrolo[2,3-c]pyridin-5-yl)-chromen-4-one oxime]
 | 232 to 235 °C | no PAM activity | ON=c1cc(-c2ccc3ccccc3n2)oc2ccccc12 [Example 79, 2-Quinolin-2-yl-chromen-4-one oxime]
 | 208 to 211 °C | no PAM activity | ON=c1cc(-c2ccncn2)oc2ccccc12 [Example 80, 2-Pyrimidin-4-yl-chromen-4-one oxime]
< 5 | > 260 °C (dec.) |  | Cl.ON=c1cc(-c2cc3cccn3cn2)oc2ccc(OCCN3CCCC3)cc12 [Example 87, 6-(2-Pyrrolidin-1-yl-ethoxy)-2-pyrrolo[1,2-c]pyrimidin-3-yl-chromen-4-one oxime, hydrochloride]
